Literature values as cited in US6379706B2, “Rapidly disintegrating coated pellets with delayed release” (Roche Diagnostics GmbH, priority 1996, dated 2002).

Settings: for solubility (in words): aqueous medium

SMILES	solubility (in words)	solubility in the intestinal juice (in words) (intestinal juice)
Cc1cccc(Nc2ccncc2S(=O)(=O)NC(=O)NC(C)C)c1 [Torasemid, 1-isopropyl-3-[(4-m-toluidino-3-pyridyl)sulfonyl]-urea]	poorly soluble	–
COc1ccccc1OCCNCC(O)COc1cccc2[nH]c3ccccc3c12 (racemic) [Carvedilol, (+/−)-1-(9H-carbazol-4-yloxy)-3-[(2-(2-methoxyphenoxy)-ethyl)-amino]-2-propanol]	poorly soluble	particularly poorly soluble
CC(C)(Oc1ccc(CCNC(=O)c2ccc(Cl)cc2)cc1)C(=O)O [Bezafibrat, 2-{4-[2-[(4-chloro-benzoyl)-amino]ethyl]-phenoxy}-2-methylpropionic acid]	poorly soluble	–
